Reference: PMC10999558, “Analyzing resistome in soil and Human gut: a study on the characterization and risk evaluation of antimicrobial peptide resistance” (Frontiers in Microbiology, 2024)

What was measured:
Format in all cases: cell-based, Escherichia coli
Conditions in all cases: MHB, 37°C, 24 h, triplicate
E. coli DH5α = assay: MIC, broth microdilution, E. coli DH5α carrying pUC118 or resistance-conferring plasmids
Method: (§1) Escherichia coli DH5α, E. coli BL21(DE3), and E. coli JM109 were utilized in this study.
(§2) The MICs were determined using the broth microdilution method in 96-well microtiter plates ([Wiegand et al., 2008]). In brief, a 1:100 dilution of the mid-exponential phase bacterial culture (OD600 = 0.5), consisting of 5 μL (1 × 10^5 CFU/mL), was introduced into polypropylene 96-well plates. These plates contained a two-fold dilution series of AMP in a total volume of 100 μL MHB per well. The incubation of the plates occurred at 37°C in a humidity chamber. The MIC was identified as the lowest concentration that hindered visible bacterial growth after 24 h of incubation. Each experiment was conducted in triplicate.
(§3) Following validation, the colonies displaying resistance underwent additional testing via MIC assessments for the remaining four AMPs that were not employed during the selection process. This experimental procedure was carried out in triplicate.

E. coli JM109 = assay: MIC, broth microdilution, retransformed E. coli JM109
Method: as §1, §2
(§4) Before washing down the colonies, we randomly selected two clones from each plate containing distinct AMP. Colony PCRs were conducted using M13 primer pairs to validate the presence of inserts and determine their sizes. The selected colonies were then subjected to sequencing. The specific details are provided in Supplementary Table S2. Following that, plasmids were isolated using the Plasmid Midiprep Kit (Zomanbio, ZP103) following the manufacturer’s guidelines. After the plasmids were successfully reintroduced into E. coli JM109 and E. coli BL 21(DE3), the MICs of the transformed strains against the AMP used for selection were tested. This testing process was carried out in triplicate.
as §3

E. coli BL21(DE3) = assay: MIC, broth microdilution, retransformed E. coli BL21(DE3)
Method: as §1, §2, §4, §3

Iseganan [IB367] was tested, and the MIC (E. coli DH5α; E. coli DH5α containing pUC118 plasmids) was 16 µg/mL, the MIC (E. coli DH5α; colony pUC118-DH5α (control, no insert)) was 16 µg/mL and the MIC (E. coli DH5α; colony pUC118-FCST1-DH5α (feces insert 1 selected against colistin)) was 16 µg/mL. For the same substance, the MIC (E. coli DH5α; colony pUC118-FCST2-DH5α (feces insert 2 selected against colistin)) was 16 µg/mL, the MIC (E. coli DH5α; colony pUC118-FGQ1-DH5α (feces insert 1 selected against melittin)) was 16 µg/mL and the MIC (E. coli DH5α; colony pUC118-FGQ2-DH5α (feces insert 2 selected against melittin)) was 32 µg/mL. The MIC (E. coli DH5α; colony pUC118-FIB1-DH5α (feces insert 1 selected against iseganan)) was 32 µg/mL, the MIC (E. coli DH5α; colony pUC118-FIB2-DH5α (feces insert 2 selected against iseganan)) was 32 µg/mL and the MIC (E. coli DH5α; colony pUC118-FPB1-DH5α (feces insert 1 selected against polymyxin B)) was 32 µg/mL. It also gave an MIC (E. coli DH5α; colony pUC118-FPB2-DH5α (feces insert 2 selected against polymyxin B)) of 16 µg/mL, an MIC (E. coli DH5α; colony pUC118-FSA1-DH5α (feces insert 1 selected against cathelicidin-DM)) of 16 µg/mL and an MIC (E. coli DH5α; colony pUC118-FSA2-DH5α (feces insert 2 selected against cathelicidin-DM)) of 16 µg/mL. For the same substance, the MIC (E. coli DH5α; colony pUC118-SCST1-DH5α (soil insert 1 selected against colistin)) was 16 µg/mL, the MIC (E. coli DH5α; colony pUC118-SCST2-DH5α (soil insert 2 selected against colistin)) was 16 µg/mL and the MIC (E. coli DH5α; colony pUC118-SGQ1-DH5α (soil insert 1 selected against melittin)) was 16 µg/mL. It also gave an MIC (E. coli DH5α; colony pUC118-SGQ2-DH5α (soil insert 2 selected against melittin)) of 16 µg/mL, an MIC (E. coli DH5α; colony pUC118-SIB1-DH5α (soil insert 1 selected against iseganan)) of 32 µg/mL and an MIC (E. coli DH5α; colony pUC118-SIB2-DH5α (soil insert 2 selected against iseganan)) of 32 µg/mL. The MIC (E. coli DH5α; colony pUC118-SPB1-DH5α (soil insert 1 selected against polymyxin B)) was 16 µg/mL, the MIC (E. coli DH5α; colony pUC118-SPB2-DH5α (soil insert 2 selected against polymyxin B)) was 16 µg/mL and the MIC (E. coli DH5α; colony pUC118-SSA1-DH5α (soil insert 1 selected against cathelicidin-DM)) was 32 µg/mL. The MIC (E. coli DH5α; colony pUC118-SSA2-DH5α (soil insert 2 selected against cathelicidin-DM)) was 32 µg/mL, the MIC (E. coli JM109; colony pUC118-FCST1-JM109 (feces insert 1 selected against colistin)) was 8 µg/mL and the MIC (E. coli JM109; colony pUC118-FCST2-JM109 (feces insert 2 selected against colistin)) was 8 µg/mL. For the same substance, the MIC (E. coli JM109; colony pUC118-FGQ1-JM109 (feces insert 1 selected against melittin)) was 8 µg/mL, the MIC (E. coli JM109; colony pUC118-FGQ2-JM109 (feces insert 2 selected against melittin)) was 16 µg/mL and the MIC (E. coli JM109; colony pUC118-FIB1-JM109 (feces insert 1 selected against iseganan)) was 16 µg/mL. For the same substance, the MIC (E. coli JM109; colony pUC118-FIB2-JM109 (feces insert 2 selected against iseganan)) was 32 µg/mL, the MIC (E. coli JM109; colony pUC118-FPB1-JM109 (feces insert 1 selected against polymyxin B)) was 32 µg/mL and the MIC (E. coli JM109; colony pUC118-FPB2-JM109 (feces insert 2 selected against polymyxin B)) was 8 µg/mL. For the same substance, the MIC (E. coli JM109; colony pUC118-FSA1-JM109 (feces insert 1 selected against cathelicidin-DM)) was 8 µg/mL, the MIC (E. coli JM109; colony pUC118-FSA2-JM109 (feces insert 2 selected against cathelicidin-DM)) was 8 µg/mL and the MIC (E. coli JM109; colony pUC118-JM109 (control, no insert)) was 8 µg/mL. The MIC (E. coli JM109; colony pUC118-SCST1-JM109 (soil insert 1 selected against colistin)) was 8 µg/mL, the MIC (E. coli JM109; colony pUC118-SCST2-JM109 (soil insert 2 selected against colistin)) was 8 µg/mL and the MIC (E. coli JM109; colony pUC118-SGQ1-JM109 (soil insert 1 selected against melittin)) was 8 µg/mL. It also gave an MIC (E. coli JM109; colony pUC118-SGQ2-JM109 (soil insert 2 selected against melittin)) of 8 µg/mL, an MIC (E. coli JM109; colony pUC118-SIB1-JM109 (soil insert 1 selected against iseganan)) of 32 µg/mL and an MIC (E. coli JM109; colony pUC118-SIB2-JM109 (soil insert 2 selected against iseganan)) of 16 µg/mL. It also gave an MIC (E. coli JM109; colony pUC118-SPB1-JM109 (soil insert 1 selected against polymyxin B)) of 8 µg/mL, an MIC (E. coli JM109; colony pUC118-SPB2-JM109 (soil insert 2 selected against polymyxin B)) of 8 µg/mL and an MIC (E. coli JM109; colony pUC118-SSA1-JM109 (soil insert 1 selected against cathelicidin-DM)) of 16 µg/mL. The MIC (E. coli JM109; colony pUC118-SSA2-JM109 (soil insert 2 selected against cathelicidin-DM)) was 16 µg/mL, the MIC (E. coli BL21(DE3); colony pUC118-BL21(DE3) (control, no insert)) was 16 µg/mL and the MIC (E. coli BL21(DE3); colony pUC118-FCST1-BL21(DE3) (feces insert 1 selected against colistin)) was 16 µg/mL. For the same substance, the MIC (E. coli BL21(DE3); colony pUC118-FCST2-BL21(DE3) (feces insert 2 selected against colistin)) was 16 µg/mL, the MIC (E. coli BL21(DE3); colony pUC118-FGQ1-BL21(DE3) (feces insert 1 selected against melittin)) was 16 µg/mL and the MIC (E. coli BL21(DE3); colony pUC118-FGQ2- BL21(DE3) (feces insert 2 selected against melittin)) was 32 µg/mL. The MIC (E. coli BL21(DE3); colony pUC118-FIB1-BL21(DE3) (feces insert 1 selected against iseganan)) was 32 µg/mL, the MIC (E. coli BL21(DE3); colony pUC118-FIB2-BL21(DE3) (feces insert 2 selected against iseganan)) was 32 µg/mL and the MIC (E. coli BL21(DE3); colony pUC118-FPB1-BL21(DE3) (feces insert 1 selected against polymyxin B)) was 32 µg/mL. It also gave an MIC (E. coli BL21(DE3); colony pUC118-FPB2-BL21(DE3) (feces insert 2 selected against polymyxin B)) of 16 µg/mL, an MIC (E. coli BL21(DE3); colony pUC118-FSA1-BL21(DE3) (feces insert 1 selected against cathelicidin-DM)) of 16 µg/mL and an MIC (E. coli BL21(DE3); colony pUC118-FSA2-BL21(DE3) (feces insert 2 selected against cathelicidin-DM)) of 16 µg/mL. It also gave an MIC (E. coli BL21(DE3); colony pUC118-SCST1-BL21(DE3) (soil insert 1 selected against colistin)) of 16 µg/mL, an MIC (E. coli BL21(DE3); colony pUC118-SCST2-BL21(DE3) (soil insert 2 selected against colistin)) of 16 µg/mL and an MIC (E. coli BL21(DE3); colony pUC118-SGQ1-BL21(DE3) (soil insert 1 selected against melittin)) of 16 µg/mL. It also gave an MIC (E. coli BL21(DE3); colony pUC118-SGQ2-BL21(DE3) (soil insert 2 selected against melittin)) of 16 µg/mL, an MIC (E. coli BL21(DE3); colony pUC118-SIB1-BL21(DE3) (soil insert 1 selected against iseganan)) of 32 µg/mL and an MIC (E. coli BL21(DE3); colony pUC118-SIB2-BL21(DE3) (soil insert 2 selected against iseganan)) of 32 µg/mL. The MIC (E. coli BL21(DE3); colony pUC118-SPB1-BL21(DE3) (soil insert 1 selected against polymyxin B)) was 16 µg/mL, the MIC (E. coli BL21(DE3); colony pUC118-SPB2-BL21(DE3) (soil insert 2 selected against polymyxin B)) was 16 µg/mL and the MIC (E. coli BL21(DE3); colony pUC118-SSA1-BL21(DE3) (soil insert 1 selected against cathelicidin-DM)) was 32 µg/mL. For the same substance, the MIC (E. coli BL21(DE3); colony pUC118-SSA2-BL21(DE3) (soil insert 2 selected against cathelicidin-DM)) was 16 µg/mL.
